Legend:
[1] = target: Glutamate receptor ionotropic, NMDA 2B (Rattus norvegicus, UniProt Q00960); test: Displacement of [3H]-ifenprodil from NR2B receptor in rat brain cerebral cortex membranes incubated for 120 mins by liquid scintillation counting method; type: cell membranes
[2] = target: Glutamate receptor ionotropic, NMDA 2B (Mus musculus, UniProt P35438+Q01097); test: Antagonist activity at mouse NR2B receptor expressed in HEK293 cells co-expressing NR1 subunit assessed as reduction in glutamic acid/glycine-induced calcium ion influx by fluorescence based assay; type: cell-based
Sequence of Glutamate receptor ionotropic, NMDA 2B (Mus musculus, UniProt P35438+Q01097) (Q01097 whole entry, one chain of several): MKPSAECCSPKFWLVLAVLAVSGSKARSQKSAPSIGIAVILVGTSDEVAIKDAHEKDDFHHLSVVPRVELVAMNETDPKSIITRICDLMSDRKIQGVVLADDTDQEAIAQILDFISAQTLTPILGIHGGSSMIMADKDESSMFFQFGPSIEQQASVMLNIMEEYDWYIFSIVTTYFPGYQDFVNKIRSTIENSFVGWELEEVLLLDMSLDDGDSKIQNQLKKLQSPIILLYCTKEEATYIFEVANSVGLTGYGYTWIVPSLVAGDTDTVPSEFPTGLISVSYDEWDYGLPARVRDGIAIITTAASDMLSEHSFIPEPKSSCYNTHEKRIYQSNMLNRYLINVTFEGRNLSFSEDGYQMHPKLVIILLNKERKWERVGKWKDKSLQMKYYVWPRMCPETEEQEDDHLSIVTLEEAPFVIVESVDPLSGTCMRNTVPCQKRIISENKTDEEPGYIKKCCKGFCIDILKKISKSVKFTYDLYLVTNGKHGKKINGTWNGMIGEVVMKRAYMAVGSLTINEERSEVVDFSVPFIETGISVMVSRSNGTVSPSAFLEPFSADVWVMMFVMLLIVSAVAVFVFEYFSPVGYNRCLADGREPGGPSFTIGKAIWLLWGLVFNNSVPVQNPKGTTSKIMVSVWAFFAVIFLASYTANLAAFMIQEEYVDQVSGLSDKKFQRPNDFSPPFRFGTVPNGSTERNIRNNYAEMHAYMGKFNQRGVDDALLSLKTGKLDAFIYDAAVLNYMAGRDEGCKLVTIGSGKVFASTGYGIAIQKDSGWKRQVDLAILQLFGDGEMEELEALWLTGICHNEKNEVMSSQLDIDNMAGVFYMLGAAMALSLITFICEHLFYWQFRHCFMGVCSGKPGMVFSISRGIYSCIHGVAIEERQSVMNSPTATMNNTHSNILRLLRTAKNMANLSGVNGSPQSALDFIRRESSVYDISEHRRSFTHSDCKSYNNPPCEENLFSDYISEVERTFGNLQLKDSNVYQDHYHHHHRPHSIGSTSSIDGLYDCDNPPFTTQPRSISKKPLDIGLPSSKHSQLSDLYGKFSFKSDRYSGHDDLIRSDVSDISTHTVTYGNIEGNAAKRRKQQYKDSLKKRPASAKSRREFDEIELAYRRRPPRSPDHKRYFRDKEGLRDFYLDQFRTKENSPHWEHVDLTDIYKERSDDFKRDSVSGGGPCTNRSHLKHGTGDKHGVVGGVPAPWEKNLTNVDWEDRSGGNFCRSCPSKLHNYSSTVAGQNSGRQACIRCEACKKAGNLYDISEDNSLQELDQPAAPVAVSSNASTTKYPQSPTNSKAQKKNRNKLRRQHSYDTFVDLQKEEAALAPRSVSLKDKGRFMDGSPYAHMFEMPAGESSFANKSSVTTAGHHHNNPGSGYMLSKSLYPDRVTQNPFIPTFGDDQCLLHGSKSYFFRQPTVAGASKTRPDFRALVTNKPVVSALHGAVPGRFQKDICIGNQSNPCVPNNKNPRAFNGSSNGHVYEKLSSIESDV

[3] = Total clearance in Sprague-Dawley rat at 0.5 mg/kg, iv dosed via cassette dosing; type: ADME, organism-based; settings: in vivo
[4] = Oral bioavailability in Sprague-Dawley rat at 1 mg/kg dosed via cassette dosing; type: ADME, organism-based; settings: in vivo
[5] = […] coefficient, ratio of total drug level in brain to plasma in Sprague-Dawley rat at 0.5 mg/kg, iv dosed via cassette dosing measured after 0.5 hrs; type: ADME, organism-based; settings: brain and plasma
Rattus norvegicus = test: Analgesic activity in rat model of partial sciatic nerve ligation model assessed as increase in pain threshold at 2.5 to 10 mg/kg, po measured after 3 hrs by Von Frey filament test; type: functional; settings: read-out: MED
hERG (KCNH2) = hERG (KCNH2) (Homo sapiens, UniProt Q12809); test: Inhibition of human ERG expressed in HEK293 cells at 1 uM; type: cell-based; settings: HEK293 cells expressing human ERG
Sequence of hERG (KCNH2) (Q12809 whole entry): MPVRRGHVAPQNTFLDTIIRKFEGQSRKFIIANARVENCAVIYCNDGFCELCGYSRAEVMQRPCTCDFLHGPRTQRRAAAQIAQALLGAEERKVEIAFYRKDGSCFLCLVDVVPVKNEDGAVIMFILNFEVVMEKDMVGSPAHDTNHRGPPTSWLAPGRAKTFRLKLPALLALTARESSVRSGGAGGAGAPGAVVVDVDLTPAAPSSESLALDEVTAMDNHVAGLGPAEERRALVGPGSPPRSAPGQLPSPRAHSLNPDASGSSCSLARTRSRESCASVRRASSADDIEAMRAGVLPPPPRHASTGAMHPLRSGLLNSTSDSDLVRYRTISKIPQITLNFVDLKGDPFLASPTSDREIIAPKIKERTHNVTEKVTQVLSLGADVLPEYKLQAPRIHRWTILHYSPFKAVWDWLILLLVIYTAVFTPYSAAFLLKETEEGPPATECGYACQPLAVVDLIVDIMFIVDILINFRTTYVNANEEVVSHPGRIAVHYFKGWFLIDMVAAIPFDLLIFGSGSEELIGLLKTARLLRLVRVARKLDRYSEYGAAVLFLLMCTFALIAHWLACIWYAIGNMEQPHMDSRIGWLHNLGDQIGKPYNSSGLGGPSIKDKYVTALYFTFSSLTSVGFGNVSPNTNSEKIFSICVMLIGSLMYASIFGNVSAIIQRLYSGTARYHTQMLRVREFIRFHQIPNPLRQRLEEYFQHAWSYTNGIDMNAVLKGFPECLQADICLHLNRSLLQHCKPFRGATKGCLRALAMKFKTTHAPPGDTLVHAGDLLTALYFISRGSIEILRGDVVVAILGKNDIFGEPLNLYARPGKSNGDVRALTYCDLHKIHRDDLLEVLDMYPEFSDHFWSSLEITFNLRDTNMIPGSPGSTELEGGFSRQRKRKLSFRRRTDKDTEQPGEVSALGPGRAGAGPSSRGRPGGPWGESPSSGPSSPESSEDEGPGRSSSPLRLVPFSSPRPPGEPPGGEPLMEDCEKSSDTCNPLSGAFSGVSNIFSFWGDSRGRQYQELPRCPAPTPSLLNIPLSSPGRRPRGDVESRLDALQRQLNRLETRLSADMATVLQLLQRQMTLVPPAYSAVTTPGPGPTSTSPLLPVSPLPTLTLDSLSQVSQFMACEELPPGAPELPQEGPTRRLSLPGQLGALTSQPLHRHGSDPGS

Sequence of Glutamate receptor ionotropic, NMDA 2B (Rattus norvegicus, UniProt Q00960) (Q00960 whole entry): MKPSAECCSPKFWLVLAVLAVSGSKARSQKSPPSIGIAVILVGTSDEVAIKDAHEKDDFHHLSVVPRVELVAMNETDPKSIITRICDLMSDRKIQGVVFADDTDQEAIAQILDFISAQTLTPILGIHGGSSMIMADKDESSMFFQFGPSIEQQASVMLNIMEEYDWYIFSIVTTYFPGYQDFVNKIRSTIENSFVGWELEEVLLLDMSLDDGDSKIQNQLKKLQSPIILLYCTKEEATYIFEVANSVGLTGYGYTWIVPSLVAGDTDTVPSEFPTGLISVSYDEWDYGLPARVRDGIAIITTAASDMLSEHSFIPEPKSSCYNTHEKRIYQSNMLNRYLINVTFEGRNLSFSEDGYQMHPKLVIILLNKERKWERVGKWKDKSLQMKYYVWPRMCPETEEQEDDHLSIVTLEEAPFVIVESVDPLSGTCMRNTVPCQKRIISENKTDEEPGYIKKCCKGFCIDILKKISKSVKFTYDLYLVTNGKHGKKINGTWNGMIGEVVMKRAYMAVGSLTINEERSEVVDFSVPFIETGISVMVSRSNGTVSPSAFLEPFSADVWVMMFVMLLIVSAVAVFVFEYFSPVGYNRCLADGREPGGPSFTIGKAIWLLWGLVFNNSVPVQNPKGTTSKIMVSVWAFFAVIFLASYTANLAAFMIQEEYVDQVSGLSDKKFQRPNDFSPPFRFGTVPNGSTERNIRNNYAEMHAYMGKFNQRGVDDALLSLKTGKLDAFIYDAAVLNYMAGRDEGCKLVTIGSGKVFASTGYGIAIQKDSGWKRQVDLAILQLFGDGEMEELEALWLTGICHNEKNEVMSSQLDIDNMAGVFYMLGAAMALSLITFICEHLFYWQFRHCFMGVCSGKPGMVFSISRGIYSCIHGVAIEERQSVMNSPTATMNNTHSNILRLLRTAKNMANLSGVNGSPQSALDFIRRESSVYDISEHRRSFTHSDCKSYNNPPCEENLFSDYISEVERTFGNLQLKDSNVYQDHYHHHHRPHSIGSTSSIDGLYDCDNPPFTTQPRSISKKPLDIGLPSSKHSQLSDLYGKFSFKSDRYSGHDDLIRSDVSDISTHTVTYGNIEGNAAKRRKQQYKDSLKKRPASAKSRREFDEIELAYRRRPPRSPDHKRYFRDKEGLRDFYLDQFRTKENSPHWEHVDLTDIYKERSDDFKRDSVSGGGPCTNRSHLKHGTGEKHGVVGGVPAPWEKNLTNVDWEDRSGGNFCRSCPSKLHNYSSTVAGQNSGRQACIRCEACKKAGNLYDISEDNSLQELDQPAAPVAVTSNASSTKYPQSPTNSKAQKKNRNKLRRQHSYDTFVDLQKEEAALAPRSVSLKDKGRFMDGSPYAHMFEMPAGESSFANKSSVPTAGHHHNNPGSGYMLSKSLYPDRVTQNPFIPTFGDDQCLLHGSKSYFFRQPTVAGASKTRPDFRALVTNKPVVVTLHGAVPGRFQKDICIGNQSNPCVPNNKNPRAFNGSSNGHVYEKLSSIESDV

Structure (SMILES)	IC50 [1] [nM]	IC50 [2] [nM]	clearance [3] [mL/min/kg]	bioavailability [4] [%]	Kp at 0.5 h [5]	minimal effective dose (Rattus norvegicus) [mg/kg]	inhibition at 1 µM (hERG (KCNH2)) [%]
COc1ccc(N2CCN(C(=O)C(=O)Nc3ccc4[nH]c(=O)oc4c3)CC2)cc1	251	200	–	–	–	–	–
C[C@H]1CN(C(=O)C(=O)Nc2ccc3[nH]c(=O)oc3c2)CCN1c1ccc(Cl)cc1	631	100	–	–	–	–	–
O=C(Nc1ccc2[nH]c(=O)oc2c1)C(=O)N1CCN(Cc2ccc(Cl)cc2)CC1	501	63.1	6.8	7.4	0.41	–	–
O=C1Cc2cc(NC(=O)C(=O)N3CCN(c4ccc(Cl)cc4)CC3)ccc2N1	> 1000	–	–	–	–	–	–
O[C@]1(Cc2cc(-c3cn[nH]c3)on2)CC[C@@H](Cc2ccc(C(F)(F)F)cc2)CC1	100	12.6	4	67.5	2.66	–	–
O=C(Nc1ccc2[nH]c(=O)oc2c1)C(=O)N1CCN(c2ccccc2)CC1	> 1000	–	–	–	–	–	–
O=C(c1cc(-c2ccc(=O)[nH]c2)on1)N1CCN(Cc2ccc(Cl)cc2)CC1	> 1000	–	–	–	–	–	–
O=C(Nc1ccc2[nH]c(=O)oc2c1)C(=O)N1CCN(c2ccc(F)cc2)CC1	126	126	11.1	39.3	–	–	–
O=C(Nc1ccc2[nH]c(=O)oc2c1)C(=O)N1CCN(c2cc(F)cc(F)c2)CC1	158	100	–	–	–	–	–
O=C(c1cc(-c2cc[nH]n2)on1)N1CCC(Cc2ccccc2)CC1	79.4	50.1	71.6	0.2	3.89	–	–
O=C(c1cc(-c2cc[nH]n2)on1)N1CCC(Cc2ccc(F)cc2)CC1	79.4	63.1	–	–	–	–	–
C[C@H]1CN(c2ccc(Cl)cc2)CCN1C(=O)C(=O)Nc1ccc2[nH]c(=O)oc2c1	> 1000	–	–	–	–	–	–
O=C1CCc2cc(NC(=O)C(=O)N3CCN(c4ccc(Cl)cc4)CC3)ccc2N1	> 1000	–	–	–	–	–	–
O=C(c1cc(-c2ccc(=O)[nH]c2)on1)N1CCN(c2ccc(Cl)cc2)CC1	> 1000	–	–	–	–	–	–

Compounds with a lower IC50 [1], results first:

IC50 [1] [nM]	IC50 [2] [nM]	clearance [3] [mL/min/kg]	bioavailability [4] [%]	Kp at 0.5 h [5]	Structure (SMILES)	minimal effective dose (Rattus norvegicus) [mg/kg]	inhibition at 1 µM (hERG (KCNH2)) [%]
63.1	63.1	19.3	18.4	0.37	O=C(c1cc(-c2ccc(=O)[nH]c2)on1)N1CCC(Cc2ccccc2)CC1	–	–
63.1	6.31	15.6	52.6	1.85	C[C@@H]1CN(C(=O)C(=O)Nc2ccc3[nH]c(=O)oc3c2)CCN1c1ccc(Cl)cc1	10	25
63.1	39.8	29.2	0.6	3.27	O=C(c1cc(-c2cc[nH]n2)on1)N1CCC(Cc2ccc(Cl)cc2)CC1	–	–
63.1	10	15.9	25.3	1.89	C[C@@H]1CN(C(=O)C(=O)Nc2ccc3[nH]c(=O)oc3c2)CCN1c1ccc(F)c(F)c1	–	–
50.1	39.8	19.7	18.4	0.5	O=C(c1cc(-c2ccc(=O)[nH]c2)on1)N1CCC(Cc2ccc(F)cc2)CC1	–	–
50.1	3.16	6	32	1.19	C[C@@H]1CN(C(=O)C(=O)Nc2ccc3[nH]c(=O)oc3c2)CCN1c1ccc(Cl)c(F)c1	2.5	10
50.1	6.31	5.6	118	0.67	C[C@@H]1CN(c2ccc(F)c(F)c2)CCN1C(=O)C(=O)Nc1ccc2[nH]c(=O)oc2c1	–	–
31.6	10	18.3	24.6	1.24	O=C(Nc1ccc2[nH]c(=O)oc2c1)C(=O)N1CCN(c2ccc(F)c(Cl)c2)CC1	–	–
31.6	6.31	5.4	130	0.95	C[C@@H]1CN(c2ccc(Cl)cc2)CCN1C(=O)C(=O)Nc1ccc2[nH]c(=O)oc2c1	10	36
25.1	6.31	15.1	24.8	2.99	O=C(Nc1ccc2[nH]c(=O)oc2c1)C(=O)N1CCN(c2ccc(C(F)(F)F)cc2)CC1	–	–
25.1	10	5.4	9.3	0.38	O=C(c1cc(-c2ccc(=O)[nH]c2)on1)N1CCC(Cc2ccc(Cl)cc2)CC1	–	–
20	10	4	13	0.82	O=C(Nc1ccc2[nH]c(=O)oc2c1)C(=O)N1CCN(c2ccc(F)c(F)c2)CC1	–	–
15.8	–	7.2	17.8	0.53	O=C(Nc1ccc2[nH]c(=O)oc2c1)C(=O)N1CCN(c2ccc(Cl)cc2)CC1	–	–
15.8	15.8	101	0.6	3.17	COc1ccc(N2CCN(C(=O)C(=O)Nc3ccc4[nH]c(=O)oc4c3)CC2)cc1F	–	–
15.8	1	5.6	8.7	0.65	O=C(Nc1ccc2[nH]c(=O)oc2c1)C(=O)N1CCN(c2ccc(C(F)(F)F)c(F)c2)CC1	–	–
12.6	–	5.6	28.2	0.79	O=C(Nc1ccc2[nH]c(=O)oc2c1)C(=O)N1CCN(c2ccc(Cl)c(F)c2)CC1	–	–
12.6	2	1.37	30.4	0.99	C[C@@H]1CN(c2ccc(Cl)c(F)c2)CCN1C(=O)C(=O)Nc1ccc2[nH]c(=O)oc2c1	5	29

From ChEMBL document CHEMBL4316607, “Discovery of NR2B-selective antagonists via scaffold hopping and pharmacokinetic profile optimization” (Bioorg Med Chem Lett, 2019)
